The NIST ThermoML archive (doi:10.1021/acs.jced.7b00119)
± gives the expanded uncertainty stated by the source.

Columns and labels:
[1] = excess molar enthalpy (molar enthalpy of mixing); xn = mol fraction of the nth substance listed; settings: Liquid, Flow calorimetry
[2] = Liquid, Closed cell (Static) method

CC(=O)N(C)C [N,N-dimethylethanamide] + Cc1ccccc1
[1]
Settings	excess molar enthalpy [kcal/mol]
363.15 K, 1955 kPa, x2 = 0.0436	0.00378 ± 0.00105
363.15 K, 1955 kPa, x2 = 0.0878	0.00686 ± 0.00112
363.15 K, 1955 kPa, x2 = 0.1327	0.0102 ± 0.0012
363.15 K, 1955 kPa, x2 = 0.1781	0.0134 ± 0.00124
363.15 K, 1955 kPa, x2 = 0.2242	0.0163 ± 0.00131
363.15 K, 1955 kPa, x2 = 0.2709	0.0193 ± 0.00139
363.15 K, 1955 kPa, x2 = 0.3182	0.0232 ± 0.00146
363.15 K, 1955 kPa, x2 = 0.3662	0.0263 ± 0.00143
363.15 K, 1955 kPa, x2 = 0.4149	0.0292 ± 0.00167
363.15 K, 1955 kPa, x2 = 0.4643	0.0318 ± 0.00167
363.15 K, 1955 kPa, x2 = 0.5144	0.0344 ± 0.00167
363.15 K, 1955 kPa, x2 = 0.5652	0.0361 ± 0.00167
363.15 K, 1955 kPa, x2 = 0.6168	0.0368 ± 0.00167
363.15 K, 1955 kPa, x2 = 0.6691	0.038 ± 0.00167
363.15 K, 1955 kPa, x2 = 0.7222	0.0385 ± 0.00167
363.15 K, 1955 kPa, x2 = 0.7761	0.0375 ± 0.00167
363.15 K, 1955 kPa, x2 = 0.8308	0.0349 ± 0.00167
363.15 K, 1955 kPa, x2 = 0.8864	0.0289 ± 0.00167
363.15 K, 1955 kPa, x2 = 0.9428	0.0178 ± 0.00134
413.15 K, 1824 kPa, x2 = 0.022	0.00251 ± 0.00103
413.15 K, 1824 kPa, x2 = 0.0441	0.00528 ± 0.00108
413.15 K, 1824 kPa, x2 = 0.0887	0.00963 ± 0.00117
413.15 K, 1824 kPa, x2 = 0.1338	0.014 ± 0.00127
413.15 K, 1824 kPa, x2 = 0.1796	0.0186 ± 0.00136
413.15 K, 1824 kPa, x2 = 0.2259	0.0225 ± 0.00143
413.15 K, 1824 kPa, x2 = 0.2728	0.0265 ± 0.00143
413.15 K, 1824 kPa, x2 = 0.3204	0.0311 ± 0.00167
413.15 K, 1824 kPa, x2 = 0.3686	0.0354 ± 0.00167
413.15 K, 1824 kPa, x2 = 0.4174	0.0406 ± 0.00191
413.15 K, 1824 kPa, x2 = 0.4668	0.0449 ± 0.00191
413.15 K, 1824 kPa, x2 = 0.5169	0.0485 ± 0.00191
413.15 K, 1824 kPa, x2 = 0.5677	0.0523 ± 0.00215
413.15 K, 1824 kPa, x2 = 0.6192	0.0554 ± 0.00215
413.15 K, 1824 kPa, x2 = 0.6714	0.0571 ± 0.00215
413.15 K, 1824 kPa, x2 = 0.7243	0.0576 ± 0.00215
413.15 K, 1824 kPa, x2 = 0.7779	0.0557 ± 0.00215
413.15 K, 1824 kPa, x2 = 0.8323	0.0497 ± 0.00191
413.15 K, 1824 kPa, x2 = 0.8874	0.0406 ± 0.00191
413.15 K, 1824 kPa, x2 = 0.9433	0.0246 ± 0.00143
413.15 K, 1824 kPa, x2 = 0.9715	0.0134 ± 0.00124

CC(=O)N(C)C [N,N-dimethylethanamide] + c1ccccc1
[1], 413.15 K, 1824 kPa
Settings	excess molar enthalpy [kcal/mol]
x2 = 0.0261	-0.0033 ± 0.00105
x2 = 0.0522	-0.00617 ± 0.0011
x2 = 0.1042	-0.0116 ± 0.00122
x2 = 0.1817	-0.0187 ± 0.00136
x2 = 0.2586	-0.0239 ± 0.00148
x2 = 0.3604	-0.0277 ± 0.00167
x2 = 0.4361	-0.0275 ± 0.00167
x2 = 0.5114	-0.0241 ± 0.00143
x2 = 0.5861	-0.0193 ± 0.00139
x2 = 0.6603	-0.0129 ± 0.00124
x2 = 0.7584	-0.00356 ± 0.00105
x2 = 0.8315	0.00311 ± 0.00103
x2 = 0.904	0.00703 ± 0.00112
x2 = 0.9521	0.00629 ± 0.0011
x2 = 0.9761	0.00411 ± 0.00105

c1ccccc1 [benzene]
Settings	vapor or sublimation pressure [kPa]
[2], 328.15 K	43.65 ± 0.22

ClCCl [dichloromethane]
Settings	vapor or sublimation pressure [kPa]
[2], 333.15 K	197.94 ± 0.68

ClCCl [dichloromethane] + CC(=O)N(C)C
[1], 323.15 K, 1273 kPa
Settings	excess molar enthalpy [kcal/mol]
x1 = 0.0709	-0.101 ± 0.00311
x1 = 0.1387	-0.188 ± 0.00502
x1 = 0.2037	-0.265 ± 0.00669
x1 = 0.2659	-0.328 ± 0.00789
x1 = 0.3257	-0.379 ± 0.00908
x1 = 0.3831	-0.412 ± 0.0098
x1 = 0.4383	-0.438 ± 0.0103
x1 = 0.4914	-0.454 ± 0.0105
x1 = 0.5425	-0.458 ± 0.0108
x1 = 0.5917	-0.456 ± 0.0105
x1 = 0.6391	-0.44 ± 0.0103
x1 = 0.6849	-0.417 ± 0.0098
x1 = 0.7291	-0.386 ± 0.00908
x1 = 0.7718	-0.348 ± 0.00837
x1 = 0.813	-0.303 ± 0.00741
x1 = 0.8529	-0.252 ± 0.00621
x1 = 0.8914	-0.195 ± 0.00502
x1 = 0.9288	-0.132 ± 0.00382
x1 = 0.965	-0.0681 ± 0.00239

CCO [ethanol]
Settings	vapor or sublimation pressure [kPa]
[2], 353.15 K	108.42 ± 0.4

CCOC(C)=O [ethyl acetate]
Settings	vapor or sublimation pressure [kPa]
[2], 353.15 K	111.76 ± 0.41

CCCCCCC [heptane]
Settings	vapor or sublimation pressure [kPa]
[2], 353.15 K	57.09 ± 0.25

CCCCCC [hexane]
Settings	vapor or sublimation pressure [kPa]
[2], 353.15 K	142.4 ± 0.5

CO [methanol]
Settings	vapor or sublimation pressure [kPa]
[2], 343.15 K	125.65 ± 0.45

C=CCCCCCC [oct-1-ene]
[2]
Settings	vapor or sublimation pressure [kPa]
328.15 K	10.12 ± 0.17
363.15 K	39.2 ± 0.18

C=CCCCCCC [oct-1-ene] + CC(=O)N(C)C
[1], 363.15 K, 1858 kPa
Settings	excess molar enthalpy [kcal/mol]
x1 = 0.03	0.0437 ± 0.00191
x1 = 0.0612	0.0906 ± 0.00287
x1 = 0.0938	0.135 ± 0.00382
x1 = 0.1279	0.176 ± 0.00478
x1 = 0.1636	0.213 ± 0.0055
x1 = 0.201	0.249 ± 0.00621
x1 = 0.2401	0.281 ± 0.00693
x1 = 0.2812	0.31 ± 0.00765
x1 = 0.3244	0.336 ± 0.00813
x1 = 0.3698	0.357 ± 0.0086
x1 = 0.4177	0.37 ± 0.00884
x1 = 0.4682	0.379 ± 0.00908
x1 = 0.5215	0.383 ± 0.00908
x1 = 0.5779	0.38 ± 0.00908
x1 = 0.6377	0.368 ± 0.00884
x1 = 0.7013	0.344 ± 0.00837
x1 = 0.7688	0.304 ± 0.00741
x1 = 0.8408	0.243 ± 0.00621
x1 = 0.9177	0.149 ± 0.00406

Cc1ccccc1 [toluene]
Settings	vapor or sublimation pressure [kPa]
[2], 353.15 K	38.92 ± 0.21
